Reference: publication PMC8370991, “Structural basis for the inhibition of HTLV-1 integration inferred from cryo-EM deltaretroviral intasome structures” (Nature Communications, 2021)
Where two headings read alike, the source gives them in different places.

Key:
[1] = system: HIV-1; conditions: HIV-1 infection model; supplementary ref 1; read-out: HIV-1 EC50 ± stdev; cited from earlier work
[2] = target: T1, recombinant HTLV-1 IN (Human T-cell leukemia virus 1, UniProt P03362); test: In vitro integration strand transfer assay with HTLV-1 IN; format: biochemical; conditions: for HTLV-1 IN strand transfer activity (No drug = 100): INSTI at 634 nM
T1 construct: made in house
Experimental: We used in vitro strand transfer assays to screen this small molecule library for its ability to inhibit recombinant HTLV-1 IN. The enzyme was incubated with an oligonucleotide vDNA donor mimic in the presence or absence of INSTIs and was allowed to react with a supercoiled plasmid mimicking target DNA. During the screening, the concentration of each compound was adjusted to 634 nM to provide optimal resolution of efficacy between well- and under-performing compounds.
The donor vDNA that mimics the 3′-processed LTR of HTLV-1 or STLV-1 DNA was preassembled by annealing the U5_S20Q_UP and U5_S20Q_B or MarB43_U5_S30UP or MarB43_U5_S30B oligonucleotides, respectively (Supplementary Table 4) in 100 mM Tris pH 7.4, 400 mM NaCl. For HTLV-1 IN, strand transfer reactions were conducted in a solution of 24.3 mM PIPES pH 6.0, 138.4 mM NaCl, 16.6 mM MgCl2, 5.8 μM ZnCl2, 12.7 mM DTT, 0.53 μM donor DNA and 4 μg of HTLV-1 IN[9],[39]. In brief, the reaction was incubated at RT for 15 min in the presence of an INSTI or dimethyl sulfoxide (DMSO) control and the reaction was started by the addition of 300 ng of pGEM-9Zf(-) supercoiled plasmid DNA. The reaction was incubated for 1 h at 37 °C and stopped by adding 0.5% SDS and 25 mM ethylenediaminetetraacetic acid (EDTA), pH 8.0.
Proteins were degraded by incubation with 30 μg of proteinase K (Roche) at 37 °C for 1 h. DNA was precipitated at −20 °C overnight in the presence of ethanol supplemented with 20 μg of glycogen and then resuspended in 1.5× agarose loading dye. The DNA products were separated by electrophoresis through 1.5% agarose gel and stained with ethidium bromide and imaged using the BioRad GelDox XR + imager. The data were analysed and the IC50 calculated as previously described. In brief, the DNA band that corresponds to the concerted integration product was quantified by densitometry in ImageLab 4.1 (Bio-Rad). All experiments were done in triplicate. Quantified data points were fitted to dose–response curves in Prism 9. The cumulative standard deviation for each drug was calculated as an average of the upper limit and lower limit values: Lowerlimit=IC50/10^logSE(IC50) Upperlimit=IC50×10^logSE(IC50)

[3] = Replicate 1, read-out: HTLV-1 IN strand transfer IC50
[4] = Replicate 2, read-out: HTLV-1 IN strand transfer IC50
[5] = Replicate 3, read-out: HTLV-1 IN strand transfer IC50
[6] = integrase strand-transfer drug titration, n = 3, read-out: HTLV-1 IC50 ± stdev

T1 sequence (P03362 1168-1462): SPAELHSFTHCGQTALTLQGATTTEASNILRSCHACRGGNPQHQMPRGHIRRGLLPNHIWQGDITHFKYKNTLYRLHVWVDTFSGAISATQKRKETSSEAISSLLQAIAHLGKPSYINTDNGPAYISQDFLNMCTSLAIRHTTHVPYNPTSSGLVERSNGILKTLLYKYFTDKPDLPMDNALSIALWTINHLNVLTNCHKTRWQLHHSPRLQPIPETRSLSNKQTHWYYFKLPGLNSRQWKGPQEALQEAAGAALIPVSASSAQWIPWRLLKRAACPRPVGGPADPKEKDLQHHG

SMILES | EC50 [1] [nM] | HTLV-1 IN strand transfer activity (No drug = 100) ([2]; Replicate 1) [%] | HTLV-1 IN strand transfer activity (No drug = 100) ([2]; Replicate 2) [%] | HTLV-1 IN strand transfer activity (No drug = 100) ([2]; Replicate 3) [%] | IC50 [2, 3] [nM] | IC50 [2, 4] [nM] | IC50 [2, 5] [nM] | IC50 [2, 6] [nM] | IC50 compared with that of RAL ([2]; dose-response strand transfer assays) | inhibition of HTLV-1 IN in the screen compared with RAL ([2]; each compound at 634 nM)
Nc1c(C(=O)NCc2ccc(F)cc2F)c(=O)n(O)c2ncc(CCCCCCO)cc12 [XZ426, 4-amino-N-(2,4-difluorobenzyl)-1-hydroxy-6-(6-hydroxyhexyl)-2-oxo-1,2-dihydro-1,8-naphthyridine-3-carboxamide] | 2.3 ± 0.6 | 14.449 | 19.5833 | 19.9322 | 159 | 169 | 175 | 163 ± 27.9 |  | 
COC(=O)CCc1c2c(c(O)c(=O)n1C(C)C)C(=O)N(Cc1ccc(F)c(Cl)c1)C2=O [XZ220, methyl 3-(2-(3-chloro-4-fluorobenzyl)-7-hydroxy-5-isopropyl-1,3,6-trioxo-2,3,5,6-tetrahydro-1H-pyrrolo[3,4-c]pyridin-4-yl)propanoate] |  | 93.628 | 97.195 | 85.9754 |  |  |  |  |  | 
CN(C)S(=O)(=O)c1cc(O)c(O)c2c1CN(Cc1ccc(F)c(Cl)c1)C2=O [XZ259, 2-(3-chloro-4-fluorobenzyl)-6,7-dihydroxy-N,N-dimethyl-1-oxoisoindoline-4-sulfonamide] |  | 63.0889 | 67.971 | 68.9907 |  |  |  |  |  | 
O=C(NNC(=O)c1cccc(O)c1O)c1cccc(O)c1O [XZ15, N'-(2,3-dihydroxybenzoyl)-2,3-dihydroxybenzohydrazide] |  | 99.084 | 89.5316 | 92.2753 |  |  |  |  |  | 
O=C1c2ccc(O)c(O)c2C(=O)N1Cc1ccc(F)c(Cl)c1 [XZ89, 2-(3-chloro-4-fluorobenzyl)-4,5-dihydroxyisoindoline-1,3-dione] |  | 87.9286 | 85.883 | 98.5818 |  |  |  |  |  | 
O=C(NCc1ccc(F)cc1F)c1c(NCCO)c2cccnc2n(O)c1=O [XZ378, N-(2,4-difluorobenzyl)-1-hydroxy-4-((2-hydroxyethyl)amino)-2-oxo-1,2-dihydro-1,8-naphthyridine-3-carboxamide] |  | 14.3053 | 44.0798 | 36.7031 | 311 | 474 | 392 | 397 ± 64 | no significant improvement over RAL | outperformed RAL
Nc1c(C(=O)NCc2ccc(F)cc2F)c(=O)n(O)c2ncc(CCCCCO)cc12 [XZ419, 4-amino-N-(2,4-difluorobenzyl)-1-hydroxy-6-(5-hydroxypentyl)-2-oxo-1,2-dihydro-1,8-naphthyridine-3-carboxamide] | 1.3 ± 0.2 | 14.8861 | 26.7311 | 21.3921 | 173 | 249 | 269 | 226 ± 21 |  | 
Nc1c(C(=O)NCc2ccc(F)cc2F)c(=O)n(O)c2ncc(CCCOCCO)cc12 [XZ432, 4-amino-N-(2,4-difluorobenzyl)-1-hydroxy-6-(3-(2-hydroxyethoxy)propyl)-2-oxo-1,2-dihydro-1,8-naphthyridine-3-carboxamide] |  | 18.6132 | 21.9961 | 19.5014 | 177 | 156 | 173 | 168 ± 17 |  | 
Nc1c(C(=O)NCc2ccc(F)cc2F)c(=O)n(O)c2nc(N3CCOCC3)ccc12 [XZ413, 4-amino-N-(2,4-difluorobenzyl)-1-hydroxy-7-morpholino-2-oxo-1,2-dihydro-1,8-naphthyridine-3-carboxamide] |  | 103.686 | 92.8191 | 81.1252 |  |  |  |  |  | 
